Results reported in patent publication US9517988B2 (Sichuan Haisco Pharmaceutical Co., Ltd., priority 2013, dated 2016).

Assays:
[1] = Righting reflex experiment on mice; conditions: both, ICR, mouse, in vivo; for MTD: intravenous; for LD50: iv
Description: (§1) LD5 (5% lethal dose): dose required to cause 5% of mice to die in a test.
(§2) If a normal animal was able to immediately turn its body to normal upright position after being pushed over or made lying on its back, such a reflex was determined as the righting reflex. Otherwise, loss of the righting reflex and the time of loss were recorded, and a reflex recovery time was recorded when the animal restored the righting reflex. The period from finishing of drug administration until loss of the righting reflex was recorded as the anesthesia induction time, and the period from loss of the righting reflex until recovery of the righting reflex was recorded as the anesthesia maintenance time.
(§3) TI (therapeutic index, i.e. LD50/ED50), SI (safety index, i.e. LD5/ED95).
(§4) MTD (maximum tolerated dose): the maximum dose able to cause 100% to loss the righting index without death.
(§5) Indicators such as median effective dose (ED50), median lethal dose (LD50), therapeutic index (TI, i.e. LD50/ED50), safety index (SI, i.e. LD5/ED95), anesthesia induction time, anesthesia maintenance time, and maximum tolerated dose (MTD) were used to evaluate the effect and safety of anesthesia. […] After adapting to the laboratory environment, laboratory animals were fasted for 12 hours. On the next day, administration was carried out at 10 mg/kg body weight. Upon intravenous injection, the time of loss of the righting reflex was recorded. The period from finishing of drug administration until loss of the righting reflex was recorded as the anesthesia induction time, and the period from loss of the righting reflex until recovery of the righting reflex was recorded as the anesthesia maintenance time. The anesthesia induction time and the anesthesia maintenance time were used to indicate how strong an anesthetic effect was. Meanwhile, the dose required to cause a 7-min anesthesia (HD7) was measured and used to evaluate relative efficacy.

ICR mice [2] = assay: Righting reflex experiment on mice; conditions: for ED50: Mus musculus, iv; for Anesthesia induction time / Anesthesia maintenance time / HD7 / MTD: mice; for Anesthesia induction time / Anesthesia maintenance time: intravenous injection; for Anesthesia induction time: end of administration until loss of righting reflex; for Anesthesia maintenance time: loss until recovery of righting reflex; for HD7: dose required to cause a 7-min anesthesia; for SI: safety index, LD5/ED95, mice; for TI: therapeutic index, LD50/ED50, mice; for MTD: maximum dose causing 100% loss of righting reflex without death
Description: as §1, §2, §3, §4, §5

[3] = Pharmacokinetic experiment on rats; type: in vivo, SD rats; conditions: male, Sprague-Dawley, rat, plasma; Intravenous Injection into Rats (1 mg/kg)
Description: 3 male SD rats, each weighing 180 to 240 g, were fasted overnight with water access. A 1 mL/kg solution of the compound was formulated with 10% DMA, 20% solutol HS-15 (30%, w/v) and 70% physiological saline. Blood was sampled before administration and 2 min, 4 min, 8 min, 12 min, 15 min, 30 min, 1 h, 1.5 h and 2 h after administration. Blood samples were centrifuged at 5500 rpm for 10 min, and plasma was collected and stored at −40° C. 10 μl rat plasma from each time point was added to a 200 μl acetonitrile solution containing an internal standard and mixed, followed by 1-min vortexing and 18-min centrifugation at 3700 rpm. Then 70 μl supernatant was mixed with 70 μl water, and 10 μl of the mixture was analyzed by LC-MS/MS. Major pharmacokinetic parameters were subjected to a non-compartment analysis with the software WinNonlin 6.3.

[4] = Righting reflex experiment on mice with prodrugs; type: in vivo; conditions: ICR, mouse, in vivo, mice; for MTD: intravenous, prodrugs; for LD50: intravenous injection, prodrugs in physiological saline
Description: (§6) After adapting to the laboratory environment, the SPF-grade ICR mice were fasted for 12 hours.

ICR mice [5] = assay: Righting reflex experiment on mice with prodrugs; type: in vivo; conditions: for ED50: Mus musculus, prodrugs formulated with physiological saline, read-out: ED50; for ED50 / Anesthesia induction time / Anesthesia maintenance time: mice, intravenous injection; for Anesthesia induction time / Anesthesia maintenance time / SI / TI: prodrugs; for SI: safety index, LD5/ED95, mice; for TI: therapeutic index, LD50/ED50, mice
Description: as §6

| Compound | MTD [1] [mg/kg] | LD50 [1] [mg/kg] | ED50 (ICR mice [2]) [mg/kg] | Anesthesia induction time (ICR mice [2]) [s] | Anesthesia maintenance time (ICR mice [2]) [s] | HD7 (ICR mice [2]) [mg/kg] | SI (ICR mice [2]) | TI (ICR mice [2]) | further results |
| --- | --- | --- | --- | --- | --- | --- | --- | --- | --- |
| CC(C)c1cccc(C(C)C2CC2)c1O (stereo not drawn) [Compound 3, 2-(1-cyclopropylethyl)-6-isopropylphenol] | 10 | 22.7 | 3.7 | <15.0 | 660.4 | 6.0 | 1.7 | 6.1 |  |
| CCC(C)c1cccc(C(C)C2CC2)c1O (stereo not drawn) [Compound 4, 2-sec-butyl-6-(1-cyclopropylethyl)phenol] | 25 | 38.1 | 4.5 | <15.0 | 901.7 | 4.0 | 2.6 | 8.4 |  |
| CC(c1cccc(C2CC2)c1O)C1CC1 (stereo not drawn) [Compound 5, 2-cyclopropyl-6-(1-cyclopropylethyl)phenol] | 60 | 80 | 14.5 | <15.0 | 1669.5 |  | 4.0 | 5.5 |  |
| CC(c1cccc(C2(C)CC2)c1O)C1CC1 (stereo not drawn) [Compound 6, 2-(1-cyclopropylethyl)-6-(1-methylcyclopropyl)phenol] | 30 | 40 | 10.5 | <15.0 | 554.9 |  | 2.7 | 3.8 |  |
| CC(C)c1cccc(C(C)C2CCC2)c1O (stereo not drawn) [Compound 7, 2-(1-cyclobutylethyl)-6-isopropylphenol] |  | 40 | 7.1 | <15.0 | 958.0 |  | 2.7 | 5.7 | MTD (ICR mice [2]): 30.0 mg/kg |
| COc1cccc(C(C)C2CC2)c1O (stereo not drawn) [Compound 8, 2-(1-cyclopropylethyl)-6-methoxy-phenol] | 40 | 67 | 7.3 | <15.0 | 394.8 |  | 7.0 | 9.1 | AUC(0-t) [3]: 132 ng·h/mL; clearance [3]: 119 mL/min/kg; half-life [3]: 48 min |
| CC(C)c1cccc(C(C2CC2)C2CC2)c1O [Compound 11, 2-(dicyclopropylmethyl)-6-isopropyl-phenol] | 80 | 100 | 30.1 | <15.0 | 1494.7 |  | 2.5 | 3.3 |  |
| CC(c1cccc(C(C)C2CC2)c1O)C1CC1 (stereo not drawn) [Compound 13, 2,6-bis(1-cyclopropylethyl)phenol] |  | 20 | 3.6 | <15.0 | 554.4 | 7.0 | 3.0 | 5.5 | MTD (ICR mice [2]): 10.0 mg/kg; AUC(0-t) [3]: 187 ng·h/mL; clearance [3]: 87.5 mL/min/kg; half-life [3]: 12 min |
| CC(C)c1cccc([C@H](C)C2CCC2)c1O [Compound 14, 2-[(1R)-1-cyclobutylethyl]-6-isopropyl-phenol] |  | 38.2 | 6.6 | <15.0 | 2235.6 |  | 3.7 | 5.8 | MTD (ICR mice [2]): 35.0 mg/kg |
| CC(C)c1cccc([C@@H](C)C2CCC2)c1O [Compound 15, 2-[(1S)-1-cyclobutylethyl]-6-isopropyl-phenol] |  | 107 | 46.1 | <15.0 | 485.8 |  | 1.1 | 2.3 | MTD (ICR mice [2]): 70.0 mg/kg |
| C[C@@H](c1cccc([C@H](C)C2CC2)c1O)C1CC1 [Compound 18, 2,6-bis[(1R)-1-cyclopropylethyl]phenol] | 20 | 43.6 | 5.8 | <15.0 | 1031.6 | 2.5 | 3.5 | 7.5 |  |
| C[C@H](c1cccc([C@H](C)C2CC2)c1O)C1CC1 [Compound 19, 2-[(1S)-1-cyclopropylethyl]-6-[(1R)-1-cyclopropylethyl]phenol] | 5 | 6.3 | 1.5 | <15.0 | 754.4 |  | 3.8 | 4.1 |  |
| C[C@H](c1cccc([C@@H](C)C2CC2)c1O)C1CC1 [Compound 20, 2,6-bis[(1S)-1-cyclopropylethyl]phenol] |  | 150 | 15.7 | <15.0 | 1207.7 |  | 4.4 | 9.6 | MTD (ICR mice [2]): 90.0 mg/kg |
| CC[C@H](C)c1cccc([C@H](C)C2CC2)c1O [Compound 25, 2-[(1R)-1-cyclopropylethyl]-6-[(1S)-1-methylpropyl]phenol] | 10 | 14.3 | 2 | <15.0 | 1048.0 | 4.0 | 4.6 | 7.1 | AUC(0-t) [3]: 78.1 ng·h/mL; clearance [3]: 208 mL/min/kg; half-life [3]: 24 min |
| CC[C@@H](C)c1cccc([C@H](C)C2CC2)c1O [Compound 26, 2-[(1R)-1-cyclopropylethyl]-6-[(1R)-1-methylpropyl]phenol] | 4 | 8.3 | 1.3 | <15.0 | 690.0 | 2.5 | 2.4 | 6.4 | AUC(0-t) [3]: 124 ng·h/mL; clearance [3]: 134 mL/min/kg; half-life [3]: 30 min |
| CC[C@H](C)c1cccc([C@@H](C)C2CC2)c1O [Compound 28, 2-[(1S)-1-cyclopropylethyl]-6-[(1S)-1-methylpropyl]phenol] | 15 | 36.8 | 5.3 | <15.0 | 885.9 | 8.0 | 3.0 | 6.9 | AUC(0-t) [3]: 143 ng·h/mL; clearance [3]: 115 mL/min/kg; half-life [3]: 18 min |
| C[C@H](c1cccc([C@H](C)C2CC2)c1OCOP(=O)(O)O)C1CC1 [Compound 76, sodium (2-((R)-1-cyclopropylethyl)-6-((S)-1-cyclopropylethyl)phenoxy)methyl phosphate] |  |  |  |  |  |  |  |  | MTD ([4]; both sexes): 80 mg/kg; LD50 ([4]; both sexes): 143 mg/kg; ED50 (ICR mice [5]): 35.8 mg/kg; Anesthesia induction time (ICR mice [5]): 111.8 s; Anesthesia maintenance time (ICR mice [5]): 1992.8 s; SI (ICR mice [5]): 2.5; TI (ICR mice [5]): 4.0 |
| C[C@H](c1cccc([C@@H](C)C2CC2)c1OCOP(=O)(O)O)C1CC1 [Compound 77, sodium (2,6-bis((S)-1-cyclopropylethyl)phenoxy)methyl phosphate] |  |  |  |  |  |  |  |  | MTD ([4]; both sexes): 160 mg/kg; LD50 ([4]; both sexes): 274 mg/kg; ED50 (ICR mice [5]): 94.7 mg/kg; Anesthesia induction time (ICR mice [5]): 175.4 s; Anesthesia maintenance time (ICR mice [5]): 1859.1 s; SI (ICR mice [5]): 1.7; TI (ICR mice [5]): 2.9 |
| CC[C@@H](C)c1cccc([C@H](C)C2CC2)c1OCOP(=O)([O-])[O-].[Na+].[Na+] [Compound 78] |  |  |  |  |  |  |  |  | MTD ([4]; both): 40 mg/kg; LD50 ([4]; both): 63.7 mg/kg; ED50 (ICR mice [5]): 15.9 mg/kg; Anesthesia induction time (ICR mice [5]): 65.2 s; Anesthesia maintenance time (ICR mice [5]): 2634.6 s; SI (ICR mice [5]): 2.9; TI (ICR mice [5]): 4.0 |
| CC[C@H](C)c1cccc([C@H](C)C2CC2)c1OCOP(=O)([O-])[O-].[Na+].[Na+] [Compound 79] |  |  |  |  |  |  |  |  | MTD ([4]; both): 60 mg/kg; LD50 ([4]; both): 91.8 mg/kg; ED50 (ICR mice [5]): 24.3 mg/kg; Anesthesia induction time (ICR mice [5]): 72.5 s; Anesthesia maintenance time (ICR mice [5]): 2252.1 s; SI (ICR mice [5]): 2.1; TI (ICR mice [5]): 3.8 |
